How the values were obtained:
[1] = system: normal NK cells expanded with K562-aAPC; assay: percent inhibition of viability; higher = more inhibition; settings: 72 h, IL-2 2.5 ng/mL
Protocol: (§1)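 Drug sensitivity and resistance testing on K562-aAPC-expanded normal NK cells: 5 concentrations (10-fold steps over a 10,000-fold range), 72 h at 37 °C, viability by CellTiter-Glo normalised to DMSO and benzethonium chloride controls; DSS from the fitted curve.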

[2] = system: normal primary NK cells, pool 1 (3 donors) (IL-2 2.5 ng/mL); assay: drug sensitivity score (DSS) (DSS units); higher = more sensitive; extreme values may be limits of the assay; settings: 72 h
[3] = system: NK-92 (IL-2 2.5 ng/mL); assay: as above; settings: 72 h
[4] = system: IMC-1 (IL-2 20 ng/mL); assay: as above; settings: 72 h
[5] = system: DERL-7 (IL-2 2.5 ng/mL); assay: as above; settings: 72 h
[6] = system: SNK-6 (IL-2 2.5 ng/mL); assay: as above; settings: 72 h
[7] = system: normal primary NK cells, pool 3 (3 donors) (IL-2 2.5 ng/mL); assay: as above; settings: 72 h
[8] = system: KAI3 (IL-2 2.5 ng/mL); assay: as above; settings: 72 h
[9] = system: NK-YS (IL-2 2.5 ng/mL); assay: as above; settings: 72 h
[10] = system: normal primary NK cells, pool 1 (3 donors), resting (IL-2 0 ng/mL); assay: as above; settings: 72 h
[11] = system: NKL (IL-2 2.5 ng/mL); assay: as above; settings: 72 h
[12] = system: YT (IL-2 2.5 ng/mL); assay: as above; settings: 72 h
[13] = system: KHYG-1 (IL-2 2.5 ng/mL); assay: as above; settings: 72 h
[14] = system: normal primary NK cells, pool 2 (3 donors) (IL-2 2.5 ng/mL); assay: as above; settings: 72 h
[15] = system: normal primary NK cells, pool 1 (3 donors) (IL-2 2.5 ng/mL); assay: percent inhibition of viability; higher = more inhibition; settings: 72 h
[16] = system: NK-92 (IL-2 2.5 ng/mL); assay: as above; settings: 72 h
[17] = system: IMC-1 (IL-2 20 ng/mL); assay: as above; settings: 72 h
[18] = system: DERL-7 (IL-2 2.5 ng/mL); assay: as above; settings: 72 h
[19] = system: SNK-6 (IL-2 2.5 ng/mL); assay: as above; settings: 72 h
[20] = system: normal primary NK cells, pool 3 (3 donors) (IL-2 2.5 ng/mL); assay: as above; settings: 72 h
[21] = system: KAI3 (IL-2 2.5 ng/mL); assay: as above; settings: 72 h
[22] = system: NK-YS (IL-2 2.5 ng/mL); assay: as above; settings: 72 h
[23] = system: normal primary NK cells, pool 1 (3 donors), resting (IL-2 0 ng/mL); assay: as above; settings: 72 h
[24] = system: NKL (IL-2 2.5 ng/mL); assay: as above; settings: 72 h
[25] = system: YT (IL-2 2.5 ng/mL); assay: as above; settings: 72 h
[26] = system: KHYG-1 (IL-2 2.5 ng/mL); assay: as above; settings: 72 h
[27] = system: normal primary NK cells, pool 2 (3 donors) (IL-2 2.5 ng/mL); assay: as above; settings: 72 h
[28] = system: normal NK cells expanded with K562-aAPC; assay: drug sensitivity score (DSS) (DSS units); higher = more sensitive; extreme values may be limits of the assay; settings: 72 h; IL-2 2.5 ng/mL
Protocol: as §1

O=C(Nc1ccncc1)C(=O)c1cn(Cc2ccc(Cl)cc2)c2ccccc12 [Indibulin] (max concentration tested 10000 nM)
percent inhibition of viability [%]
Settings	1 nM	10 nM	100 nM	1000 nM	10000 nM
[1]	0.45	-0.15	0.03	26.6	49.8
[15]	-10.2	-6.02	-8.45	-10.4	-3.72
[16]	-6.37	25.8	53.4	90.8	88.7
[17]	-3.14	0.7	4.01	92.4	98.2
[18]	0.04	6.67	4.75	46.8	89.2
[19]	23.1	63.2	78.4	84	80.9
[20]	-1.93	-8.2	1.19	5.32	11.4
[21]	3.69	14.7	33	55.2	49.6
[22]	-6.38	5.31	41.8	72.1	62.7
[23]	-7.61	-0.32	20.6	8.83	10.7
[24]	-12.2	-11.9	51.8	86.5	83.6
[25]	-4.48	2.55	34.7	90.4	92
[26]	-4.72	2.71	48.2	102	96
[27]	-0.63	-6.55	0.37	1.94	2.69

Settings	drug sensitivity score
[2]	0
[3]	24.3
[4]	17.3
[5]	10.5
[6]	35
[7]	0.07
[8]	14.6
[9]	18.2
[10]	0.77
[11]	21.9
[12]	20.8
[13]	24
[14]	0
[28]	5.97

Cc1cc(C(C)Nc2ccccc2)c2nc(N3CCOCC3)cc(=O)n2c1 (stereo not drawn) [TGX-221] (max concentration tested 10000 nM)
percent inhibition of viability [%]
Settings	1 nM	10 nM	100 nM	1000 nM	10000 nM
[1]	-0.66	0.04	5.39	4.41	32.4
[15]	-13.5	-0.76	-6.33	4.04	29.7
[16]	2.02	4.62	5.66	32.2	31.8
[17]	-6.36	-5.05	-4.93	-4.5	-0.86
[18]	0.96	-2.74	-1.99	1.82	27.4
[19]	31	21.5	15.7	15.3	-7.08
[20]	-7.93	-8.91	-2.84	3.04	11.7
[21]	-3.13	-6.25	-6.02	4.84	23.6
[22]	-2.78	-1.69	-1.28	2.25	27.1
[23]	-4.4	0.78	-11.3	14.5	51.2
[24]	2.96	0.41	10.3	15.5	28
[25]	-1.99	2.32	1.97	11.6	28.1
[26]	2.88	11.7	4.06	7.54	14.4
[27]	-16.6	-10.3	-4.51	4.63	29.4

Settings	drug sensitivity score
[2]	1.93
[3]	6.45
[4]	0
[5]	1.37
[6]	0
[7]	0.14
[8]	1.55
[9]	1.43
[10]	4.9
[11]	2.96
[12]	2.28
[13]	0
[14]	2
[28]	2.2

Reference: the supplement of paper PMC5908809
